Measured values reported in US20100022491A1, “4-HYDROXY-2-OXO-2,3-DIHYDRO-1,3-BENZOTHIAZOL-7YL COMPOUNDS FOR MODULATION OF B2-ADRENORECEPTOR ACTIVITY” (ASTRAZENECA AB, priority 2006, published 2010).
Structures can show the parent of a compound that is named as a salt.

Legend:
Adrenergic β2 = biological target: T1, Adrenergic β2 (Homo sapiens, UniProt P07550); experiment: Adrenergic β2 mediated cAMP production in H292 cells; assay type: cell-based; conditions: for EC50: H292 cells, cAMP by AlphaScreen, 60 minutes at room temperature, rolipram 300 μM, read-out: β2 pEC50 (converted); for β2 Int Act: Intrinsic Activity as a fraction relative to the maximum activity determined for formoterol
T1 construct: Adherent H292 cells were removed from tissue culture flasks; endogenous in cells; host or cells: H292 cells
T1 sequence (P07550 whole entry): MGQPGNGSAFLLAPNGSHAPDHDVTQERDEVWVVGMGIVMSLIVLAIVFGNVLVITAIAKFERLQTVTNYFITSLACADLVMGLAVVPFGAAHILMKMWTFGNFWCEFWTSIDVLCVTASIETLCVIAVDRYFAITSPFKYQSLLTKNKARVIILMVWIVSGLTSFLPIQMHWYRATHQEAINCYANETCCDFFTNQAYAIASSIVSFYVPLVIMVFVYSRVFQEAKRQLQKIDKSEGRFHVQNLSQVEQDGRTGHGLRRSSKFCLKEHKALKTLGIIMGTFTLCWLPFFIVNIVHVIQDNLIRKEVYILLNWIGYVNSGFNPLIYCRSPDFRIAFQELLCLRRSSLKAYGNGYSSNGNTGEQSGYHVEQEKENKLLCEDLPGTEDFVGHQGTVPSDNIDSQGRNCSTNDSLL
In short: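 cAMP accumulation in adherent H292 cells, measured by AlphaScreen and calibrated with cAMP standards. Compounds incubated 60 min at room temperature after 10 min rolipram (final 300 μM; vehicle 1.6% DMSO). pEC50 and intrinsic activity, as a fraction of formoterol's maximum, from four-parameter logistic fit.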

[1] = biological target: T2, recombinant human α1D receptor (Homo sapiens, UniProt P25100); experiment: Adrenergic α1D selectivity binding assay ([3H]-prazosin); conditions: inhibition of [3H]-prazosin (0.3 nM) binding, HEK293 membranes; read-out: α1 bind pIC50 (converted)
T2 construct: expressed in transfected cells; host or cells: HEK293
T2 sequence (P25100 1-572): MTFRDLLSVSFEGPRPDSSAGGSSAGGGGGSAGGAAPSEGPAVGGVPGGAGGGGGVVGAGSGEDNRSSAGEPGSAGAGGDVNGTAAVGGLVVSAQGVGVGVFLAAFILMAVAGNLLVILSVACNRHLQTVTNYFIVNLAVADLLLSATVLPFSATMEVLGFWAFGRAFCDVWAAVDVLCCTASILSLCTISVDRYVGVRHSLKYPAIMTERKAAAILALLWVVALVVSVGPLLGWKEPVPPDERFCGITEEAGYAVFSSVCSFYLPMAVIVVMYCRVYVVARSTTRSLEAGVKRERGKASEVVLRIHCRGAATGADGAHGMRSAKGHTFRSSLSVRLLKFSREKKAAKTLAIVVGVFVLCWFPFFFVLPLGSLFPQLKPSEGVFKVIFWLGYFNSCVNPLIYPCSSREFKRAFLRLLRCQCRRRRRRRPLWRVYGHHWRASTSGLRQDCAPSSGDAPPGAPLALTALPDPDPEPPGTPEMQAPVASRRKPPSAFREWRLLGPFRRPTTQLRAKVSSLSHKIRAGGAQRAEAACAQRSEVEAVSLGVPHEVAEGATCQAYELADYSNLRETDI
In short: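 Displacement of [3H]-prazosin (0.3 nM) from recombinant human α1D receptor in HEK293-cell membranes, 2 h at room temperature, pH 7.4 HEPES/EDTA/gelatin buffer. Filtration and scintillation counting, non-specific binding set with 10 μM BMY7378; four-parameter logistic fit gives pIC50.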

Cc1cccc(CCNCCC(=O)N(CCNCCc2ccc(O)c3[nH]c(=O)sc23)C2CCCCCC2)c1 [Example 85, N^1-Cycloheptyl-N^1-(2-{[2-(4-hydroxy-2-oxo-2,3-dihydro-1,3-benzothiazol-7-yl)ethyl]amino}ethyl)-N^3-[2-(3-methylphenyl)ethyl]-β-alaninamide bis-trifluoroacetic acid salt]
EC50 (Adrenergic β2): 6.31 nM | β2 Int Act (Adrenergic β2): 0.65 | IC50 [1]: 50.1 nM

O=C(CCNCCc1ccc(O)c2[nH]c(=O)sc12)N(CCNCCc1ccc(O)c2[nH]c(=O)sc12)C1CCCCCC1 [Example 87, bis-trifluoroacetic acid salt]
EC50 (Adrenergic β2): 3.16 nM | β2 Int Act (Adrenergic β2): 0.72 | IC50 [1]: 251 nM

O=C(CCNCCc1ccc(O)c(Cl)c1)N(CCNCCc1ccc(O)c2[nH]c(=O)sc12)C1CCCCC1 [Example 89, N^3-[2-(3-chloro-4-hydroxyphenyl)ethyl]-N^1-cyclohexyl-N^1-(2-{[2-(4-hydroxy-2-oxo-2,3-dihydro-1,3-benzothiazol-7-yl)ethyl]amino}ethyl)-β-alaninamide bis-trifluoroacetic acid salt]
EC50 (Adrenergic β2): 1.26 nM | β2 Int Act (Adrenergic β2): 0.9 | IC50 [1]: 50.1 nM

O=C(CCNCCc1ccccc1)N(CCNCCc1ccc(O)c2[nH]c(=O)sc12)C1CCCCC1 [Example 5, N-Cyclohexyl-N-(2-{[2-(4-hydroxy-2-oxo-2,3-dihydro-1,3-benzothiazol-7-yl)ethyl]amino}ethyl)-N^3-(2-phenylethyl)-β-alaninamide bis-trifluoroacetic acid salt]
EC50 (Adrenergic β2): 2.51 nM | β2 Int Act (Adrenergic β2): 0.83 | IC50 [1]: 100 nM

O=C(CCNCCc1ccccc1)N(CCNCCc1ccc(O)c2[nH]c(=O)sc12)C1CCC(F)(F)CC1 [Example 4, N-(4,4-Difluorocyclohexyl)-N-(2-{[2-(4-hydroxy-2-oxo-2,3-dihydro-1,3-benzothiazol-7-yl)ethyl]amino}ethyl)-N^3-(2-phenylethyl)-β-alaninamide bis-trifluoroacetic acid salt]
EC50 (Adrenergic β2): 1 nM | β2 Int Act (Adrenergic β2): 0.79 | IC50 [1]: 200 nM

O=C(CCNCCc1cccc(O)c1)N(CCNCCc1ccc(O)c2[nH]c(=O)sc12)C1CCCCCCC1 [Example 90, N^1-Cyclooctyl-N^1-(2-{[2-(4-hydroxy-2-oxo-2,3-dihydro-1,3-benzothiazol-7-yl)ethyl]amino}ethyl)-N^3-[2-(3-hydroxyphenyl)ethyl]-β-alaninamide bis-trifluoroacetic acid salt]
EC50 (Adrenergic β2): 3.98 nM | β2 Int Act (Adrenergic β2): 0.71 | IC50 [1]: 63.1 nM

CC1(C)CCC(N(CCNCCc2ccc(O)c3[nH]c(=O)sc23)C(=O)CCNCCc2cccc(O)c2)CC1 [Example 91, N^1-(4,4-Dimethylcyclohexyl)-N^1-(2-{[2-(4-hydroxy-2-oxo-2,3-dihydro-1,3-benzothiazol-7-yl)ethyl]amino}ethyl)-N^3-[2-(3-hydroxyphenyl)ethyl]-β-alaninamide bis-trifluoroacetic acid salt]
EC50 (Adrenergic β2): 3.98 nM | β2 Int Act (Adrenergic β2): 0.75 | IC50 [1]: 126 nM

O=C(CCNCCc1ccc2c(c1)OCCO2)N(CCNCCc1ccc(O)c2[nH]c(=O)sc12)C1CCCCCC1 [Example 88, N-Cycloheptyl-N^3-[2-(2,3-dihydro-1,4-benzodioxin-6-yl)ethyl]-N^1-(2-{[2-(4-hydroxy-2-oxo-2,3-dihydro-1,3-benzothiazol-7-yl)ethyl]amino}ethyl)-β-alaninamide bis-trifluoroacetic acid salt]
EC50 (Adrenergic β2): 25.1 nM | β2 Int Act (Adrenergic β2): 0.37 | IC50 [1]: 251 nM

COc1ccc(CCNCCC(=O)N(CCNCCc2ccc(O)c3[nH]c(=O)sc23)C2CCCCCC2)cc1OC [Example 86, N^1-Cycloheptyl-N^3-[2-(3,4-dimethoxyphenyl)ethyl]-N^1-(2-{[2-(4-hydroxy-2-oxo-2,3-dihydro-1,3-benzothiazol-7-yl)ethyl]amino}ethyl)-β-alaninamide bis-trifluoroacetic acid salt]
EC50 (Adrenergic β2): 39.8 nM | β2 Int Act (Adrenergic β2): 0.43 | IC50 [1]: 251 nM
